Experimental data reported in patent US20020085997A1, “TUMOUR VACCINE AND PROCESS FOR THE PREPARATION THEREOF” (priority 1995, published 2002).

Test system: highly tumorigenic variant of the M-3 cells
Format: in vivo, mice

LFEAIEGFI [Leu Phe Glu Ala Ile Glu Gly Phe Ile, viral peptide derived from the influenza virus haemagglutinin, H2-K^d-ligand, used as foreign peptide to charge tumour cells]
animals cured (cells charged with peptide using TfpL/DNA complexes): 6 out of 8 | animals developed tumours (peptide simply mixed with the cells (adjuvant)): 7 out of 8
